{"source": "patent US20050060764A1", "about": "“Mouse model for bone metabolism” (priority 2003, published 2005)", "format_in_all_cases": "in vivo, mouse", "key": {"[1]": {"experiment": "Serum calcium concentration in mice treated with RANK antisense oligonucleotide, no PTH: dose response and delivery method (Table 11)", "method": "In accordance with the present invention, antisense inhibition of the RANKL receptor, RANK, was evaluated in the short-term model of bone resorption. Serum calcium concentration was measured in mice treated with RANK antisense oligonucleotides at different doses, delivered by subcutaneous mini-pumps or subcutaneous injection.\nISIS 181071 ([…], SEQ ID NO: 356) is an antisense oligonucleotide targeted to mouse RANK. […] All cytidine residues are 5-methylcytidines.\nFemale Swiss-Webster mice (5-8 wks old), fed a low-calcium diet were treated with ISIS 181071 (SEQ ID NO: 356) for 15 days. The dose of oligonucleotide was either 30 mg/kg, 20 mg/kg, 10 mg/kg, 3 mg/kg, or 0.1 mg/kg administered by daily subcutaneous injections for the first five days, followed by mini-pump infusion for the remaining 10 days, or the dose was 10 mg/kg or 30 mg/kg administered daily by subcutaneous injection for the entire 15 day period. No PTH was administered to the mice that received oligonucleotide. A group of control mice were treated with either saline, PTH alone (1 ug/100 g/6 hr) or calcitonin (400 ng) plus PTH (1 ug/100 g/6 hr). After […] (total PTH delivery of 3 ug/100 g), blood samples were taken from the tail of the mice and the serum calcium concentration was measured with the Sigma Diagnostics Calcium Kit (Sigma-Aldrich). […] Thus, increase in serum calcium concentration is due to the PTH treatment rather than the oligonucleotide treatment."}, "[2]": {"experiment": "Serum calcium concentration after RANK antisense oligonucleotide treatment and PTH infusion: dose response and delivery method (Table 12)", "method": "In accordance with the present invention, ISIS 181071 was evaluated for its ability to inhibit RANK expression and PTH-induced serum calcium concentration increase following 18 days of oligonucleotide treatment.\nFemale Swiss-Webster mice (5-8 wks old), fed a low-calcium diet, were treated for 18 days with ISIS 181071 (SEQ ID NO: 356) at different doses and through different delivery methods. The dose of oligonucleotide was either 30 mg/kg, 20 mg/kg, 10 mg/kg, 3 mg/kg, or 0.1 mg/kg administered by daily subcutaneous injections for the first five days, followed by mini-pump infusion for the remaining 13 days, or the dose was 10 mg/kg or 30 mg/kg administered daily by subcutaneous injection for the entire 18 day period. After 18 days of treatment with oligonucleotides, the mice were infused with PTH by subcutaneously implanted mini-pumps at a dose of 1 ug/100 g/6 hr. A group of control mice received saline, calcitonin (400 ng) plus PTH (1 ug/100 g/6 hr) or PTH alone (1 ug/100 g/6 hr). After 24 hours of PTH infusion (total PTH delivery of 4ug/100 g), the mice were sacrificed and measurements were made of serum calcium with the Sigma Diagnostics Calcium Kit (Sigma-Aldrich) and RANK mRNA expression in proximal tibia (as described in other examples herein). The results are shown in Table 12 are normalized to PTH treatment alone and are the average of four mice per group."}, "[3]": {"experiment": "Serum calcium concentration after PTH infusion in mice treated with RANK antisense oligonucleotide: dosing schedule study (Table 14)", "method": "In accordance with the present invention, various antisense oligonucleotide dosing schedules were tested for their ability to inhibit serum calcium concentration increase resulting from PTH infusion.\nFemale Swiss-Webster mice (5-8 wks old) were fed a low-calcium diet. The mice were dosed with the same total amount of ISIS 181071 (SEQ ID NO: 356) (450 mg/kg), however the frequency of the dosage was varied. The first group received daily injections for […]. The second group received daily injections of 30 mg/kg/day for 5 days; the remaining 300 mg/kg was divided into 12 injections over 24 days and were administered every other day. The third group received daily injections of 30 mg/kg/day for 5 days; the remaining 300 mg/kg was divided into 8 injections over 24 days and were administered every third day. The fourth group received daily injections of 30 mg/kg/day for 5 days; the remaining 300 mg/kg was divided into 6 injections over 24 days and were administered every fourth day. Each group contained eight mice. Treatment with oligonucleotides was followed with infusion of PTH by subcutaneously implanted mini-pumps at a dose of 1 ug/100 g/6 hr. A control group received saline or PTH alone (1 ug/100 g/6 hr). After 24 hours of PTH infusion (total PTH delivery of 4 ug/100 g), the mice were sacrificed and the serum calcium concentration was measured with the Sigma Diagnostics Calcium Kit (Sigma-Aldrich). The data are shown in Table 14 and are the average of eight mice per group."}, "[4]": {"experiment": "Serum calcium concentration 24 hours after PTH infusion in mice treated with RANKL antisense oligonucleotides (Table 10)", "settings": "no oligonucleotide treatment, PTH 1 ug/100 g/6 hr 24 h, calcitonin 400 ng", "method": "In accordance with the present invention, the effect of antisense oligonucleotide inhibition on PTH-induced serum calcium concentration increase was measured in mice. The serum calcium concentration in mice was measured as a function of antisense oligonucleotide dose. Calcitonin, a known bone antiresorptive agent, was used as a control for antiresorptive activity.\nFemale Swiss-Webster (5-8 wks old) mice fed a low-calcium diet were dosed subcutaneously for two weeks with either the oligonucleotides ISIS 180819 (SEQ ID NO: 185) or 180814 (SEQ ID NO: 180) at concentrations of 5 mg/kg, 15 mg/kg, 30 mg/kg, or 40 mg/kg. A control group of mice were treated with calcitonin (400 ng) plus PTH (1 ug/100 g/6 hr), PTH alone (1 ug/100 g/6 hr) or saline. Treatment with oligonucleotides was followed with infusion of PTH by subcutaneously implanted mini-pumps at a dose of 1 ug/100 g/6 hr. After 24 hours of PTH infusion (total PTH delivery of 4 ug/100 g), the mice were sacrificed and the serum calcium concentration was measured with the Sigma Diagnostics Calcium Kit (Sigma-Aldrich). The data, summarized in Table 10 are averages from eight mice. Percent mRNA inhibition is normalized to PTH alone treatment."}}, "note": "Strand notation (5' to 3'): a small letter for the sugar, then the base; units joined by * are phosphorothioate-linked, units joined directly phosphodiester-linked; [ ] holds rarer units or linkages, { } end groups; capitals alone tell only the bases. e = 2'-O-(2-methoxyethyl) (MOE); [5mC] = 5-methylcytosine; d = 2'-deoxy (DNA)", "data": [{"molecule": "TCCTCGAGAGGTCTCCTTGC (antisense eT*e[5mC]*e[5mC]*eT*e[5mC]*dG*dA*dG*dA*dG*dG*dT*d[5mC]*dT*d[5mC]*e[5mC]*eT*eT*eG*e[5mC]) [ISIS 181071, 2′-MOE gapmer antisense oligonucleotide targeted to mouse RANK]", "values": [{"measurement": "Serum calcium concentration", "setting": "[1]; 0.1 mg/kg, injection 5 days then mini-pump infusion 10 days, no PTH", "value": 9, "unit": "mg/dL"}, {"measurement": "Serum calcium concentration", "setting": "[1]; 3 mg/kg, injection 5 days then mini-pump infusion 10 days, no PTH", "value": 9, "unit": "mg/dL"}, {"measurement": "Serum calcium concentration", "setting": "[1]; 10 mg/kg daily subcutaneous injection 15 days, no PTH", "value": 9, "unit": "mg/dL"}, {"measurement": "Serum calcium concentration", "setting": "[1]; 10 mg/kg, injection 5 days then mini-pump infusion 10 days, no PTH", "value": 9, "unit": "mg/dL"}, {"measurement": "Serum calcium concentration", "setting": "[1]; 20 mg/kg, injection 5 days then mini-pump infusion 10 days, no PTH", "value": 9, "unit": "mg/dL"}, {"measurement": "Serum calcium concentration", "setting": "[1]; 30 mg/kg daily subcutaneous injection 15 days, no PTH", "value": 8, "unit": "mg/dL"}, {"measurement": "Serum calcium concentration", "setting": "[1]; 30 mg/kg, injection 5 days then mini-pump infusion 10 days, no PTH", "value": 9, "unit": "mg/dL"}, {"measurement": "serum calcium", "setting": "[2]; 0.1 mg/kg, injection 5 days then infusion 13 days, then 24 h PTH", "value": 21, "unit": "mg/dL"}, {"measurement": "serum calcium", "setting": "[2]; 3 mg/kg, injection 5 days then infusion 13 days, then 24 h PTH", "value": 20, "unit": "mg/dL"}, {"measurement": "serum calcium", "setting": "[2]; 10 mg/kg daily subcutaneous injection 18 days, then 24 h PTH", "value": 18, "unit": "mg/dL"}, {"measurement": "serum calcium", "setting": "[2]; 10 mg/kg, injection 5 days then infusion 13 days, then 24 h PTH", "value": 18, "unit": "mg/dL"}, {"measurement": "serum calcium", "setting": "[2]; 20 mg/kg, injection 5 days then infusion 13 days, then 24 h PTH", "value": 18, "unit": "mg/dL"}, {"measurement": "serum calcium", "setting": "[2]; 30 mg/kg daily subcutaneous injection 18 days, then 24 h PTH", "value": 14, "unit": "mg/dL"}, {"measurement": "serum calcium", "setting": "[2]; 30 mg/kg, injection 5 days then infusion 13 days, then 24 h PTH", "value": 17, "unit": "mg/dL"}, {"measurement": "rise in serum calcium concentration in response to PTH infusion", "setting": "[3]; mice, total 450 mg/kg, various dosing schedules, 24 hours PTH infusion", "value": "can similarly prevent the rise in serum calcium concentration"}, {"measurement": "Serum calcium concentration", "setting": "[3]; total 450 mg/kg, 30 mg/kg/day 5 days then every fourth day (6 injections over 24 days), then 24 h PTH", "value": 18, "unit": "mg/dL"}, {"measurement": "Serum calcium concentration", "setting": "[3]; total 450 mg/kg, 30 mg/kg/day 5 days then every other day (12 injections over 24 days), then 24 h PTH", "value": 16, "unit": "mg/dL"}, {"measurement": "Serum calcium concentration", "setting": "[3]; total 450 mg/kg, 30 mg/kg/day 5 days then every third day (8 injections over 24 days), then 24 h PTH", "value": 17, "unit": "mg/dL"}, {"measurement": "Serum calcium concentration", "setting": "[3]; total 450 mg/kg, daily injections for 2 weeks, then 24 h PTH", "value": 16, "unit": "mg/dL"}]}, {"molecule": "parathyroid hormone (peptide, UniProt P01270 32-115, looked up, parathyroid hormone infused to induce bone resorption in the mouse model) Parathyroid hormone: SVSEIQLMHNLGKHLNSMERVEWLRKKLQDVHNFVALGAPLAPRDAGSQRPRKKEDNVLVESHEKSLGEADKADVNVLTKAKSQ", "values": [{"measurement": "serum calcium", "setting": "[4]; control groups under ISIS 180814 columns", "value": 22, "unit": "mg/dL"}, {"measurement": "serum calcium", "setting": "[4]; control groups under ISIS 180819 columns", "value": 22, "unit": "mg/dL"}, {"measurement": "Serum calcium concentration", "setting": "[1]; control mice, no oligonucleotide, PTH 1 ug/100 g/6 hr, calcitonin 400 ng, after 16 hours", "value": 9, "unit": "mg/dL"}, {"measurement": "serum calcium", "setting": "[2]; control mice, no oligonucleotide, PTH 1 ug/100 g/6 hr 24 h, calcitonin 400 ng", "value": 20, "unit": "mg/dL"}, {"measurement": "Serum calcium concentration", "setting": "[3]; control group, PTH alone 1 ug/100 g/6 hr, 24 h", "value": 21, "unit": "mg/dL"}]}]}
